Laboratory results from US5534515A, “Pyrrolopyridazines having gastrointestinal protective effects” (BYK Gulden Lomberg Chemische Fabrik GmbH, priority 1991, dated 1996).

Test system: acid secretion of the perfused rat stomach stimulated by pentagastrin
Test: Investigation of the secretion-inhibiting effect on the perfused rat stomach
Assay type: in vivo, rat (CD rats, female)
Details: for Maximum inhibition of acid secretion: N = 3, vs untreated control group, pentagastrin stimulation
Excerpt: The effect of the compounds according to the invention after intravenous administration on the acid secretion of the perfused rat stomach stimulated by pentagastrin in vivo is shown in the following Table 2.
The abdomen of anesthesized rats (CD rats, female, 200-250 g; 1.5 g/kg i.m. of urethane) was opened after tracheotomy by a median upper abdominal incision and a PVC catheter was fixed transorally in the esophagus and a further one via the pylorus in such a way that the ends of the tubes just projected into the stomach lumen. The catheter leading from the pylorus led outwards via a side opening in the right-hand abdominal wall.
After thorough irrigation (about 50-100 ml), a flow of warm physiological NaCl solution at 37° C. was continuously passed through the stomach (0.5 ml/min, pH 6.8-6.9; Brun-Unita I). The pH (pH meter 632, glass electrode EA 147; .phi.=5 mm, Metrohm) was determined in the effluent collected (25 ml measuring cylinder) at 15 min intervals in each case and the secreted HCl by titration with a freshly prepared 0.01 N NaOH solution to pH 7 (Dosimat 655 Metrohm).
The stimulation of gastric secretion was effected by continuous infusion of 1 μg/kg (=1.65 ml/h) i.v. of pentagastrin (left femoral vein) about 30 min after the end of the operation (i.e. after determination of 2 preliminary fractions). The substances to be tested were administered intravenously (left jugular vein) in a 1 ml/kg liquid volume 60 min after the start of continuous pentagastrin infusion.
The body temperature of the animals was kept at a constant 37.8°-38° C. by infrared irradiation and heating pads (automatic, stepless control via rectal temperature sensor).
The maximum decrease in acid secretion (15 min fractions) of each treated group compared to that of the untreated control group (=100%) was used as a measure of the secretion-inhibiting effect.

SMILES: Cc1c(CO)c2cnnc(OCc3ccc(F)cc3)c2n1Cc1ccccc1 [Example 1a, 1-Benzyl-7-(4-fluorobenzyloxy)-3-hydroxymethyl-2-methylpyrrolo[2,3-d]pyridazine]
- ED50 (Rattus norvegicus, iv, dose (interpolated) which causes a maximum inhibition of HCl secretion by 50%, read-out: approx. ED50): ~1.1 µmol/kg
- Maximum inhibition of acid secretion (dose 0.3 μmol/kg i.v.): 22%
- Maximum inhibition of acid secretion (dose 1.0 μmol/kg i.v.): 52%
- Maximum inhibition of acid secretion (dose 3.0 μmol/kg i.v.): 70%
- Maximum inhibition of acid secretion (dose 10.0 μmol/kg i.v.): 94%
